Results taken from patent publication US6664231B1, “Anti-fungal peptides” (priority 1993, dated 2003).
Read-outs that look alike come from different tables or passages of the source.

What was measured:
Candida albicans SLU-1 = assay: Survival of cyclosporin A-immunosuppressed mice systemically infected with Candida albicans; format: in vivo, mouse; settings: cyclosporin A 10 mg/kg i.p.; 2×10^5 Candida cells; peptide 10 mg/kg, 6 doses; FIG. 7
Protocol: Studies were also performed to determine the effectiveness of representative anti-fungal peptides in cyclosporin A-immunosuppressed mice systemically infected with Candida albicans SLU-1. Groups (15 animals/group) of 9 week-old male DBA/2J mice were immunosuppressed by pretreatment with 10 mg/kg (Day-1) of cyclosporin A administered by intraperitoneal injection. One day later (Day 0), the mice were inoculated with 2×10^5 Candida cells by intravenous injection in the tail vein. Immediately after fungal challenge, the mice were treated with a 0.1 mL volume of 10 mg/kg XMP.284, 10 mg/kg XMP.127, or PBS as a control. Cyclosporin A injections were repeated at Day 1. Day 3. Day 7, and Day 9. XMP.284, XMP.127 or PBS injections were repeated at Day 2, Day 4, Day 6, Day 8 and Day 10. […]. […] However.

[1] = tested on: Trychophyton rubrum ATCC 28188; assay: organism not typed; format: cell-based
Protocol: The anti-fungal activity of Domain III derived peptides was evaluated against a variety of fungal species, including species of Candida. Cryptococcus, Fusarium, Trichophyton, and Aspergillus, by an additional assay protocol utilizing Alamar Blue. Alamar Blue is an indicator dye formulated to measure quantitatively the proliferation of a variety of human or animal cells, bacteria, or fungi. It consists of an oxidation-reduction (REDOX) indicator that yields a colorimetric change in response to metabolic activity. For these experiments, species of Candida and Cryptococcus were grown in Sabouraud's dextrose broth (SDB) overnight. Strains of filamentous fungi (Aspergilius, Fusanum, Trichophyton) were obtained by irrigation of a confluent culture from a petri dish. Cells were washed and adjusted to a concentration of 5.0×10^3/mL in fresh SDB. […] Controls included amphotericin B, fluconazole, ketoconazole and griseofulvin. Antifungal drugs were also diluted in the same manner. Assays were performed in 96-well microuiter plates. […] The wells to be plated were determined by OD590 readings. The lowest concentration of peptide which maintained the blue color (or OD reading) of the blank was chosen along with the next two higher concentrations. Plates were allowed to grow for 18-48 hours depending on the rate of growth of each fungus. Minimal fungicidal activity (MFC) was determined as a 99.9% killing of the starting inoculum.

[2] = tested on: C. albicans (SLU-1 strain); assay: Survival of mice systemically infected with Candida albicans; format: in vivo, mouse
Protocol: Groups of 15 male DBA/2J mice at age 6-8 weeks (Jackson Laboratory, Bar Harbor, Me.) were inoculated with 1.24×10^5 C. albicans (SLU-1 strain as described in Example 2) by intravenous injection into the tail vein. Cells were prepared for animal injection as follows. A single colony was selected and used to inoculate a 5 mL tube of Sabouraud dextrose broth. Incubation was at 30° C. with shaking to allow aeration for a period of 15-18 hours. Four mL of the overnight culture were added to 100 mL of fresh Sabouraud dextrose broth (1:25 dilution) and incubated for 4 hours. The 100 mL culture was pelleted at 1,500×g for 5 minutes. Cells were washed twice by adding 20 mL D-PBS, vortexing and re-centrifuging. Cells were collected in one tube and a sample is diluted 1:10 to be measured by OD570 (1 OD unit=3×10^7 CFU/mL). The cells were diluted to the desired dose in D-PBS and kept at 4° C. until used. Doses were confirmed by performing serial ten-fold dilutions and plating 50 μl per dilution on Sabouraud dextrose agar. Colonies were counted the following day after overnight incubation at 37° C. A […] culture yielded approximately 1×10^9 CFU/mL.
Immediately after fungal challenge, the mice were intravenously injected via the tail vein with a 0.1 mL volume of 10 mg/kg XMP.36, 5 mg/kg XMP.97, 10 mg/kg XMP.102, 1 mg/kg amphotericin B (Sigma, St. Louis, Mo.), or phosphate buffered saline (PBS) as a control. Treatment with the same amounts of peptides, amphotericin B or PBS was repeated at Day 2 and Day 4 (except that the second dose of XMP.36 was given at a dose of 5 mg/kg). Mice were monitored twice daily for mortality until termination of the study at Day 28. […] In FIG. 4, the symbol “X” represents survival after treatment with amphotericin B; open squares, treatment with XMP.97; open circles, treatment with XMP.36; open diamonds, treatment with XMP.102; and open triangles, treatment with buffer. Statistical significance was evaluated using the Lifetest Survival Curve analysis. [Lawless, Statistical Models and Methods for Lifetime Data, John Wiley & Sons, New York (1982).] The duration and almost linear decline in survival is analogous to human opportunistic candidiasis.
In additional 3-dose studies, groups of 15 mice were injected with a fungal challenge of 0.5×10^5 Candida cells, prepared for injection as described above, followed by treatment at Day 0, Day 2 and Day 5 with a 0.1 mL volume of 10 mg/kg XMP.127, 5 mg/kg XMP.13, 5 mg/kg XMP.37, 1 mg/kg amphotericin B, or PBS as a control. […] In FIG. 5, the symbol “X” represents survival after treatment with amphotericin B; open circles, treatment with XMP.127; filled triangles, treatment with buffer; open squares, treatment with XMP.37; open triangles, treatment with XMP.13.
Further studies to determine the effectiveness of anti-fungal peptides were performed at an increased dosing regimen (6 doses rather than 3 doses as described above). Groups of 9 week-old male DBA/2J mice were inoculated with concentrations of 2.7×10^5 Candida cells (prepared as described above) by intravenous injection in the tail vein. Immediately after fungal challenge, the mice were treated with a 0.1 mL volume of 10 mg/kg XMP.284, 1 mg/kg amphotericin B or PBS as a control at Day 0, Day 2, Day 4, Day 7, Day 9 and Day 11. All amphotericin B-treated animals were protected.
Additional 6-dose experiments were conducted as described above, using inocula of 0.5-3.0×10^5 Candida cells and using 0.01, 0.05, 0.1, 0.5, 1.0 or 5.0 mg/kg doses of peptide.

[3] = 0.5×10^5 Candida cells, doses Day 0, 2, 5, 10 mg/kg XMP.127, 5 mg/kg XMP.13, 5 mg/kg XMP.37, 1 mg/kg amphotericin B, FIG. 5
[4] = 2.7×10^5 Candida cells, 10 mg/kg, 6 doses (Day 0, 2, 4, 7, 9, 11), FIG. 6

C[C@@H]1[C@H](O)[C@@H](C)/C=C/C=C/C=C/C=C/C=C/C=C/C=C/[C@H](O[C@@H]2O[C@H](C)[C@@H](O)[C@H](N)[C@@H]2O)C[C@@H]2O[C@](O)(C[C@@H](O)C[C@@H](O)[C@H](O)CC[C@@H](O)C[C@@H](O)CC(=O)O[C@H]1C)C[C@H](O)[C@H]2C(=O)O [Amphotericin B, amphotericin B, reference compound]
protection against infection, survival compared with PBS controls (Candida albicans SLU-1): protected
Minimum Fungicidal Concentration, Trychophyton rubrum ATCC 28188 [1]: 0.32 µg/mL
mice survived until Day 28 [2, 3]: 100%
mice survived until Day 28 ([2]; 1.24×10^5 C. albicans i.v., 3 doses i.v. (Day 0, 2, 4), 10 mg/kg XMP.36, 5 mg/kg XMP.97, 10 mg/kg XMP.102, 1 mg/kg amphotericin B, FIG. 4): 100%
protection of animals (6-dose study) ([2]; 2.7×10^5 Candida cells, 1 mg/kg, 6 doses): protected

H-KSKVGWAIQLFHKK-NH2 [XMP.37]
mice survived until Day 28 [2, 3]: 33%

H-KSKVGWLIQLFHKK-NH2 [XMP.13]
mice survived until Day 28 [2, 3]: 20%

H-SKVKWLIQLFHKK-NH2 [XMP.284]
protection against infection, survival compared with PBS controls (Candida albicans SLU-1): provided protection
Minimum Fungicidal Concentration, Trychophyton rubrum ATCC 28188 ([1]; ATCC 28188): 5.0 µg/mL
survival at Day 6 [2, 4]: 87%
survival at Day 24 [2, 4]: 33%
